# Data: patent US20220324770A1, “NITRIFICATION INHIBITORS” (The University of Melbourne, priority 2019, published 2022)
# Key:
# South Johnstone soil = assay: Soil microcosm incubation (nitrification of applied ammonium), South Johnstone soil; conditions: for Nitrified NH4+—N (%) Day 3 / Nitrified NH4+—N (%) Day 7 / Nitrified NH4+—N (%) Day 14 / Nitrified NH4+—N (%) Day 21 / Nitrified NH4+—N (%) Day 28: 10 mol %; for effectiveness compared to treatment with DMPP (higher NH4+—N, lower NOx−—N) / retaining NH4+—N vs DMPP / retaining NH4+—N and slowing NOx−—N growth vs fertilised control: South Johnstone soil; for effectiveness compared to treatment with DMPP (higher NH4+—N, lower NOx−—N): 25° C.; for Nitrified NH4+—N (%) Day 28 / effectiveness compared to treatment with DMPP (higher NH4+—N, lower NOx−—N) / retaining NH4+—N and slowing NOx−—N growth vs fertilised control: day 28; for retaining NH4+—N vs DMPP / retaining NH4+—N and slowing NOx−—N growth vs fertilised control: 35° C.
# Method: (§1) The soil used in this study was collected from four different locations in Victoria, Australia: (i) a wheat cropping soil from Horsham (36° 45′S, 142° 07′ E), (ii) a rotational cropping soil from Dahlen (36° 37′S, 142° 09′ E), (iii) a vegetable growing soil from Clyde (38° 08′S, 145° 20′ E), and (iv) a pasture soil from Terang (38° 15′S, 142° 52′E). In addition, a sugarcane cropping soil from South Johnstone in northern Queensland (17° 34′S, 145° 57′ E) was also studied. The water content of the soil was calculated before commencing each experiment, from samples that were oven-dried to constant weight. The soil's water-filled pore space (WFPS) was in the range 52%-61%, which is within the recommended 50-70% range for microbial activity due to oxygen and nutrient availability (Fichtner, T., et al., Applied Sciences, 2019, 9, 496).
# (§2) Soil microcosm incubations were carried out in 250 ml polypropylene specimen containers (Sarstedt, Germany), containing 18.24 g oven dry-weight equivalent of soil. Microcosms were re-wetted and pre-incubated at the test temperature for seven days to revive soil microbial activity. Following pre-incubation, the remaining volume to reach the desired water-filled pore spaces (WFPS %) was applied as one of the following treatment solutions; (NH4)2SO4(Control), (NH4)2SO4+DMPP, or (NH4)2SO4+one of Compounds 1-23. Each treatment was applied in triplicate per soil type, so that n=3 at each time point.
# (§3) Treatment solutions were prepared such that each microcosm received (NH4)2SO4 at a rate of 100 mg N per kg soil, Compounds 1-23 at 10 mol % of applied N, or DMPP at one of 1.5, 3.6 or 10 mol % of applied N, referred to as L-DMPP, M-DMPP or H-DMPP respectively.
# (§4) The microcosms were incubated for 0, 3, 7, 14, 21 or 28 days, where day 0 samples were extracted following 1-hour incubation post-treatment. Soil microcosms were aerated and moisture levels were replenished based on weight loss every few days throughout the incubation period.
# (§5) At the end of each incubation period, soil microcosms were destructively sampled by treatment with 2M KCl (100 mL). After shaking for 1 hour, soil-KCl solutions were filtered (Whatman 42) before storing the filtrates at −20° C. until the conclusion of the experiment. All KCl extracts were then analysed by Segmented Flow Analysis (San++, Skalar, Breda, The Netherlands) for the concentration of nitrogen from ammonium (NH4^+—N) and nitrogen from NO3 and NO2 (NOx^−—N) after appropriate dilutions. Results are reported as the mean of three replicates, errors reported are standard errors of the mean.
# (§6) Nitrification calculations were performed as previously reported (Aulakh, M., et al., Biology and Fertility of Soils 2001, 33, 258-263; Mahmood, T., et al., Soil Research 2017, 55, 715-722) without correction for the initial baseline concentrations of NH4^+—N or NO3^− N in the untreated soil. For each treatment nitrified NH4^+—N (%) was calculated according to eqn. 1:
# (§7) where [NH4^+—N]0 is the NH4^+—N concentration (in mg N kg^−1 soil) of the soil on day 0 and [NH4^+—N]t is the NH4^+—N concentration (in mg N kg^−1 soil) of the soil at a given time point t.
# Dahlen soil = assay: Soil microcosm incubation (nitrification of applied ammonium), Dahlen soil; conditions: for Nitrified NH4+—N (%) Day 3 / Nitrified NH4+—N (%) Day 7 / Nitrified NH4+—N (%) Day 14 / Nitrified NH4+—N (%) Day 21 / Nitrified NH4+—N (%) Day 28: 10 mol %
# Method: as §1, §2, §3, §4, §5, §6, §7
# (§8) NOx^−—N accumulation rates (mg NOx^−—N/kg soil/day) over the 28-day incubation experiments were calculated for each treatment as in the following (eqn. 2):
# (§9) [NOx^−—N]t=0 and [NOx^−—N]t=28 are the combined concentrations of nitrite (NO2) and nitrate (NO3) in the soil (in mg N kg^−1 soil) on day 0 and day 28, respectively.
# Terang soil = assay: Soil microcosm incubation (nitrification of applied ammonium), Terang soil; conditions: for Nitrified NH4+—N (%) Day 3 / Nitrified NH4+—N (%) Day 7 / Nitrified NH4+—N (%) Day 14 / Nitrified NH4+—N (%) Day 28: Terang soil pH 6.5, 25° C., L-DMPP 1.5 mol %; for Nitrified NH4+—N (%) Day 3: compounds 10 mol % of applied N, (NH4)2SO4 100 mg N per kg soil; for Nitrified NH4+—N (%) Day 7 / Nitrified NH4+—N (%) Day 14 / Nitrified NH4+—N (%) Day 28: compounds 10 mol %
# Method: as §1, §2, §3, §4, §5, §6, §7
# Horsham soil = assay: Soil microcosm incubation (nitrification of applied ammonium), Horsham soil
# Method: as §1, §2, §3, §4, §5, §6, §7, §8, §9
# [1] = South Johnstone soil pH 5.0, 25° C., negative = NH4+—N higher than day 0 (mineralisation)
# [2] = South Johnstone soil pH 5.0, 25° C.
# [3] = South Johnstone soil pH 5.0, 35° C.
# [4] = Table 5, Dahlen soil pH 7.3, 25° C.
# [5] = Table 5, Dahlen soil pH 7.3, 35° C.
# [6] = Horsham soil pH 8.8, 25° C., 10 mol %
# [7] = Horsham soil pH 8.8, 35° C., 10 mol %
# [8] = Table 4, Dahlen soil pH 7.3, 25° C.
# [9] = Table 4, Dahlen soil pH 7.3, 35° C.
smiles,measurement,setting,value
"C=CCn1cc(CCC)nn1 [Compound 18, 1-(2-propen-1-yl)-4-propyl-1H-1,2,3-triazole]",Nitrified NH4+—N (%) Day 3,South Johnstone soil; [1],−6.2 ± 0.9%
same,Nitrified NH4+—N (%) Day 7,South Johnstone soil; [2],−8.5 ± 1.0%
same,Nitrified NH4+—N (%) Day 14,South Johnstone soil; [2],−11.0 ± 1.0%
same,Nitrified NH4+—N (%) Day 21,South Johnstone soil; [2],−12.1 ± 1.4%
same,Nitrified NH4+—N (%) Day 28,South Johnstone soil; [2],−14.9 ± 1.4%
same,Nitrified NH4+—N (%) Day 3,South Johnstone soil; [3],−11.7 ± 2.0%
same,Nitrified NH4+—N (%) Day 7,South Johnstone soil; [3],−28.7 ± 1.5%
same,Nitrified NH4+—N (%) Day 14,South Johnstone soil; [3],−35.8 ± 1.3%
same,Nitrified NH4+—N (%) Day 21,South Johnstone soil; [3],−31.7 ± 1.1%
same,Nitrified NH4+—N (%) Day 28,South Johnstone soil; [3],−16.9 ± 1.8%
same,"effectiveness compared to treatment with DMPP (higher NH4+—N, lower NOx−—N)",South Johnstone soil,statistically higher effectiveness
same,retaining NH4+—N vs DMPP,South Johnstone soil,performed statistically better than DMPP
same,retaining NH4+—N and slowing NOx−—N growth vs fertilised control,South Johnstone soil,performed statistically better than the fertilised control
same,retaining NH4+—N levels by day 28 vs fertilised control (and DMPP),"Dahlen soil; Dahlen soil, 25° C., Table 5 test",performed statistically better
same,retaining NH4+—N vs (NH4)2SO4-treated control by day 28,"Dahlen soil; Dahlen soil, 35° C., Table 5 test",remain highly effective
same,Nitrified NH4+—N (%) Day 3,"Dahlen soil; Table 5 (further comparative test), Dahlen soil pH 7.3, 25° C.",5.1 ± 5.3%
same,Nitrified NH4+—N (%) Day 7,Dahlen soil; [4],4.4 ± 1.1%
same,Nitrified NH4+—N (%) Day 14,Dahlen soil; [4],29.4 ± 2.4%
same,Nitrified NH4+—N (%) Day 21,Dahlen soil; [4],32.1 ± 2.3%
same,Nitrified NH4+—N (%) Day 28,Dahlen soil; [4],40.5 ± 1.5%
same,Nitrified NH4+—N (%) Day 3,Dahlen soil; [5],9.0 ± 4.3%
same,Nitrified NH4+—N (%) Day 7,Dahlen soil; [5],4.5 ± 4.3%
same,Nitrified NH4+—N (%) Day 14,Dahlen soil; [5],26.7 ± 3.9%
same,Nitrified NH4+—N (%) Day 21,Dahlen soil; [5],19.8 ± 5.0%
same,Nitrified NH4+—N (%) Day 28,Dahlen soil; [5],43.0 ± 4.7%
"CCCCc1cn(CC(=O)OCC)nn1 [Compound 3, 4-Butyl-1H-1,2,3-Triazole-1-Acetic Acid Ethyl Ester]",Nitrified NH4+—N (%) Day 3,South Johnstone soil; [1],−6.3 ± 0.7%
same,Nitrified NH4+—N (%) Day 7,South Johnstone soil; [2],−7.9 ± 0.9%
same,Nitrified NH4+—N (%) Day 14,South Johnstone soil; [2],−12.7 ± 0.7%
same,Nitrified NH4+—N (%) Day 21,South Johnstone soil; [2],−13.9 ± 0.9%
same,Nitrified NH4+—N (%) Day 28,South Johnstone soil; [2],−12.8 ± 0.8%
same,Nitrified NH4+—N (%) Day 3,South Johnstone soil; [3],−11.8 ± 1.5%
same,Nitrified NH4+—N (%) Day 7,South Johnstone soil; [3],−26.2 ± 1.5%
same,Nitrified NH4+—N (%) Day 14,South Johnstone soil; [3],−34.8 ± 0.6%
same,Nitrified NH4+—N (%) Day 21,South Johnstone soil; [3],−28.3 ± 1.4%
same,Nitrified NH4+—N (%) Day 28,South Johnstone soil; [3],−18.6 ± 2.3%
same,"effectiveness compared to treatment with DMPP (higher NH4+—N, lower NOx−—N)",South Johnstone soil,statistically higher effectiveness
same,retaining NH4+—N vs DMPP,South Johnstone soil,performed statistically better than DMPP
same,retaining NH4+—N and slowing NOx−—N growth vs fertilised control,South Johnstone soil,performed statistically better than the fertilised control
same,Nitrified NH4+—N (%) Day 3,Terang soil,15.6 ± 3.0%
same,Nitrified NH4+—N (%) Day 7,Terang soil,29.4 ± 2.6%
same,Nitrified NH4+—N (%) Day 14,Terang soil,47.8 ± 3.5%
same,Nitrified NH4+—N (%) Day 28,Terang soil,99.9 ± 2.8%
same,retaining NH4+—N in the soil compared with the fertilised control,"Terang soil; Terang soil, 25° C.",most effective treatments
"CCCCCc1cn(CCCC)nn1 [Compound 1, 1-butyl-4-pentyl-1H-1,2,3-triazole]",Nitrified NH4+—N (%) Day 3,Terang soil,13.6 ± 3.1%
same,Nitrified NH4+—N (%) Day 7,Terang soil,43.1 ± 3.7%
same,Nitrified NH4+—N (%) Day 14,Terang soil,85.1 ± 4.5%
same,Nitrified NH4+—N (%) Day 28,Terang soil,100 ± 4.2%
"CCCCn1cc(C(C)(C)O)nn1 [Compound 4, 1-butyl-4-(α,α-dimethylmethanol)-1H-1,2,3-triazole]",Nitrified NH4+—N (%) Day 3,Terang soil,27.0 ± 7.5%
same,Nitrified NH4+—N (%) Day 7,Terang soil,67.3 ± 5.2%
same,Nitrified NH4+—N (%) Day 14,Terang soil,96.4 ± 5.8%
same,Nitrified NH4+—N (%) Day 28,Terang soil,100 ± 5.9%
"CCCCc1cn(CCCC)nn1 [Compound 2, 1,4-butyl-1H-1,2,3-triazole]",Nitrified NH4+—N (%) Day 3,"Horsham soil; Horsham soil pH 8.8, 25° C., inhibitors 10 mol % of applied N",12.2 ± 8.6%
same,Nitrified NH4+—N (%) Day 7,Horsham soil; [6],17.9 ± 6.9%
same,Nitrified NH4+—N (%) Day 14,Horsham soil; [6],44.5 ± 7.2%
same,Nitrified NH4+—N (%) Day 21,Horsham soil; [6],66.6 ± 8.9%
same,Nitrified NH4+—N (%) Day 28,Horsham soil; [6],90.4 ± 9.7%
same,Nitrified NH4+—N (%) Day 3,Horsham soil; [7],−3.3 ± 5.9%
same,Nitrified NH4+—N (%) Day 7,Horsham soil; [7],8.8 ± 5.5%
same,Nitrified NH4+—N (%) Day 14,Horsham soil; [7],40.3 ± 5.4%
same,Nitrified NH4+—N (%) Day 21,Horsham soil; [7],53.8 ± 9.4%
same,Nitrified NH4+—N (%) Day 28,Horsham soil; [7],71.6 ± 22.9%
same,retaining NH4+ vs uninhibited control treatment,"Horsham soil; Horsham soil, 25° C., after 28 days",to a lesser extent
same,NOx−—N accumulation: effect of temperature (25° C. vs 35° C.),"Horsham soil; Horsham soil, 28-day incubation",lower at the elevated temperature
same,nitrification rates vs uninhibited control treatment,"Horsham soil; Horsham soil, 35° C.",lower nitrification rates than the uninhibited control treatment
same,retaining NH4+—N vs uninhibited control treatment and DMPP,"Dahlen soil; Dahlen soil, 25° C., after 28 days",performed statistically better
same,retaining NH4+ vs both DMPP treatment and control treatment,"Dahlen soil; Dahlen soil, 35° C., after 28 days",performed statistically better
same,Nitrified NH4+—N (%) Day 3,Dahlen soil; [8],7.5 ± 5.2%
same,Nitrified NH4+—N (%) Day 7,Dahlen soil; [8],21.2 ± 12.2%
same,Nitrified NH4+—N (%) Day 14,Dahlen soil; [8],20.3 ± 21.6%
same,Nitrified NH4+—N (%) Day 21,Dahlen soil; [8],32.9 ± 18.4%
same,Nitrified NH4+—N (%) Day 28,Dahlen soil; [8],37.6 ± 11.0%
same,Nitrified NH4+—N (%) Day 3,Dahlen soil; [9],1.7 ± 3.3%
same,Nitrified NH4+—N (%) Day 7,Dahlen soil; [9],−1.3 ± 1.9%
same,Nitrified NH4+—N (%) Day 14,Dahlen soil; [9],2.0 ± 2.4%
same,Nitrified NH4+—N (%) Day 21,Dahlen soil; [9],29.6 ± 3.6%
same,Nitrified NH4+—N (%) Day 28,Dahlen soil; [9],22.4 ± 1.5%
same,Nitrified NH4+—N (%) Day 3,Terang soil,27.2 ± 2.0%
same,Nitrified NH4+—N (%) Day 7,Terang soil,64.8 ± 2.3%
same,Nitrified NH4+—N (%) Day 14,Terang soil,95.6 ± 2.8%
same,Nitrified NH4+—N (%) Day 28,Terang soil,100 ± 2.7%
